Test results as given in patent US20140005163A1 (NOVARTIS AG, priority 2010, published 2014).
pIC50: −log10 of the molar value.

Columns and labels:
[1] = system: PKB Ser473 phosphorylation in Rat1-myr-HA-p110 alpha cells; experiment: Reverse protein array assay, PKB Ser473 phosphorylation in Rat1-myr-p110 alpha cells; assay type: cell-based; conditions: 0.5 h, pAkt Ser473, 30 minutes compound incubation, read-out: p-PKB IC50
How it was run: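 After at least 20 h of culture, the p110 isoform-transfected Rat1 lines receive compound in an 8-step dilution series, keeping DMSO at 0.2%, for 30 minutes. Cells are then lysed and lysates arrayed on chips for fluorescence detection of Ser473-phosphorylated PKB.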

mTOR = target: T1, mTOR (Homo sapiens, UniProt P42345); experiment: Biochemical assay for m-TOR by TR-FRET; conditions: 8 μM ATP, 400 nM GFP-4EBP1, 0.5 nM mTOR
T1 construct: purchased Invitrogen Corporation (Carlsbad/CA, USA) PV4753
How it was run: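 TR-FRET read-out: Tb-labelled anti-p4EBP1 pThr46 antibody (0.5 nM), added in EDTA to stop the reaction, detects phosphorylated GFP-4EBP1 after 15 min. Kinase step used 0.5 nM mTOR, 400 nM substrate, 8 μM ATP, MnCl2-containing HEPES buffer pH 7.5, room temperature.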

PI3K delta = target: T2, PI3K delta (Homo sapiens, UniProt O00329); experiment: PI3K delta kinase assay (Kinase-Glo luminescence); assay type: biochemical
T2 construct: for the full-length p110-d subunit are generated and fused by overlapping PCR; p85(iSH2) fusion partner (see partner chain) (N); His tag (C); made in house; host or cells: baculovirus; Tn5 (Trichoplusia ni) or TiniPro insect cells
How it was run: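 Inhibition is derived from luminescent detection of unconsumed ATP. The reaction runs for one hour at ambient temperature and contains the δ isoform fusion protein, phosphatidylinositol substrate and low (1 μM) ATP. Eight compound concentrations are tested in single, and a 4-parameter logistic model is used to calculate IC50.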

T2 sequence (O00329 with tags, fused parts or gaps limits assumed): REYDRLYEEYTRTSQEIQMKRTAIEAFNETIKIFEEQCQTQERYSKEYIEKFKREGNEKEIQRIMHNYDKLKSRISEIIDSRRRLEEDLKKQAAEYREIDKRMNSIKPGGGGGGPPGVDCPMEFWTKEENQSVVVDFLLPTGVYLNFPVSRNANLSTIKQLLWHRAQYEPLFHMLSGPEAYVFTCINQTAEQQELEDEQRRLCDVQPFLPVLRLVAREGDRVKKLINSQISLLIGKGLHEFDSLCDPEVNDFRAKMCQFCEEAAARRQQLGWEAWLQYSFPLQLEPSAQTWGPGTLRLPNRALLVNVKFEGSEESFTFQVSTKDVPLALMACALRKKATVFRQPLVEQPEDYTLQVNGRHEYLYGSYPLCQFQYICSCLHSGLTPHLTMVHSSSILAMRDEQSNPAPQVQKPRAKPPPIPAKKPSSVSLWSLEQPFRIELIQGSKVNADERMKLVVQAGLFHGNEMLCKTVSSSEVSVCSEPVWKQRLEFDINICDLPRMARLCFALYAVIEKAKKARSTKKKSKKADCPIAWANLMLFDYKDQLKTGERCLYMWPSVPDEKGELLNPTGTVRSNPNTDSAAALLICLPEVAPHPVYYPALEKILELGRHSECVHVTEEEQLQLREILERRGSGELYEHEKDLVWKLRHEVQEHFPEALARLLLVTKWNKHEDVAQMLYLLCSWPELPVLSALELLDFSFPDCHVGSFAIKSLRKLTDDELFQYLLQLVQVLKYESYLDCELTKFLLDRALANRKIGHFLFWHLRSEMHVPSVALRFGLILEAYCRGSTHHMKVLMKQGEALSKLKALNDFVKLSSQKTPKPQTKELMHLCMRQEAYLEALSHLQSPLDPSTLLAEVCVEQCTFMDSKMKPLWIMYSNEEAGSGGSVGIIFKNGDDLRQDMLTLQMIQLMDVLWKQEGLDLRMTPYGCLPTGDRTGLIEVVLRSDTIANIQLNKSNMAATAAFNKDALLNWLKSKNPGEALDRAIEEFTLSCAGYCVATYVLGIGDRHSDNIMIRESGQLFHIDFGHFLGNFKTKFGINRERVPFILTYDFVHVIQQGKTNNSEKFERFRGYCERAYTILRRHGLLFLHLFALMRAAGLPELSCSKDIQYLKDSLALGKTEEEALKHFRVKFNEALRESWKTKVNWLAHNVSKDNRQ
T1 sequence (P42345 1360-2549 limits assumed): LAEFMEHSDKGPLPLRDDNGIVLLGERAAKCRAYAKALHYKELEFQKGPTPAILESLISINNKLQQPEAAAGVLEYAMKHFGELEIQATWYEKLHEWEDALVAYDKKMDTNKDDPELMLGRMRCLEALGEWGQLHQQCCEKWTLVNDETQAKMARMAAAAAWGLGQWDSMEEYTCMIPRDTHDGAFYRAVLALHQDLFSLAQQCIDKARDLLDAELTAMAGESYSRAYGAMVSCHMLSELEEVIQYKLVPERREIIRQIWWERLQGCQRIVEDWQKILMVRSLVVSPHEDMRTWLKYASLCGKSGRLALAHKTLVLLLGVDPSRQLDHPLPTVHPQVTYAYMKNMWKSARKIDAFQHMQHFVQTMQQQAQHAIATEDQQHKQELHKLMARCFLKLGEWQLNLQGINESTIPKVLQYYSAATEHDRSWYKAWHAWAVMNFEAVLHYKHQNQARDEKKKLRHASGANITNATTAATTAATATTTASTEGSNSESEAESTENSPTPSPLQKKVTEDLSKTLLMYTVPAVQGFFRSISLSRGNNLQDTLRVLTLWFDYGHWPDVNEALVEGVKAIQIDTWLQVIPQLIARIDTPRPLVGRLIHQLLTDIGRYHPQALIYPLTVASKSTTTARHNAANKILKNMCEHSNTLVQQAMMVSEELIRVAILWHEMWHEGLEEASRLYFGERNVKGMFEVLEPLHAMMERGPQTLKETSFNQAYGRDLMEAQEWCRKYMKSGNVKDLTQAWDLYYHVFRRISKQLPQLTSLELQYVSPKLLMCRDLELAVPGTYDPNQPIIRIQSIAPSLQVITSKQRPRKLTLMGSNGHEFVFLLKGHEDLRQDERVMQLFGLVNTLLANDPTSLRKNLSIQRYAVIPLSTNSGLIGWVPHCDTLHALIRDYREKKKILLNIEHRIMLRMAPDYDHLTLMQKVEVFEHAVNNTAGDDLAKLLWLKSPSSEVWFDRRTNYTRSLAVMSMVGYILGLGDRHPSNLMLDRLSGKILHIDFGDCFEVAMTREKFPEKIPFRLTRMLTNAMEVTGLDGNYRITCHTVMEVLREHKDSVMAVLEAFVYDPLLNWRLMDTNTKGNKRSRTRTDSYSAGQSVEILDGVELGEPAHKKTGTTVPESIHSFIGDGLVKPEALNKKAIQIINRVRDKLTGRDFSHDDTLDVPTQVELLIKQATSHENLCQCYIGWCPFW

Row | SMILES | pIC50 [1] | pIC50 (mTOR) | pIC50 (PI3K delta)
1 | CNc1cc(-c2ccc3ncc4c(c3c2)n(-c2cn(C)nc2C)c(=O)n4C)cnc1COC [Example 159, 1-(1,3-Dimethyl-1H-pyrazol-4-yl)-8-(6-methoxymethyl-5-methylamino-pyridin-3-yl)-3-methyl-1,3-dihydro-imidazo[4,5-c]quinolin-2-one] | 8.15 | 7.92 | 7.60
2 | CNc1ncc(-c2ccc3ncc4c(c3c2)n(-c2cn(C)nc2C)c(=O)n4C)cc1C(F)(F)F [Example 144.3, 1-(1,3-Dimethyl-1H-pyrazol-4-yl)-3-methyl-8-(6-methylamino-5-trifluoromethyl-pyridin-3-yl)-1,3-dihydro-imidazo[4,5-c]quinolin-2-one] | > 8.30 | 8.52 | 8.05
3 | Cc1nn(C)cc1-n1c(=O)n(C)c2cnc3ccc(-c4cncc(OC(F)F)c4)cc3c21 [Example 183, 8-(5-Difluoromethoxy-pyridin-3-yl)-1-(1,3-dimethyl-1H-pyrazol-4-yl)-3-methyl-1,3-dihydro-imidazo[4,5-c]quinolin-2-one] | 7.64 | > 8.52 | 8.40
4 | CCOc1cncc(-c2ccc3ncc4c(c3c2)n(-c2c(C)cnn2C)c(=O)n4C)c1 [Example 56.5, 1-(2,4-Dimethyl-2H-pyrazol-3-yl)-8-(5-ethoxy-pyridin-3-yl)-3-methyl-1,3-dihydro-imidazo[4,5-c]quinolin-2-one] | 6.07 | 6.12 | 6.71
5 | COc1ccc(-c2ccc3ncc4[nH]c(=O)n(-c5cc(C)nn5C)c4c3n2)cc1OC [Example 252, 8-(3,4-Dimethoxy-phenyl)-1-(2,5-dimethyl-2H-pyrazol-3-yl)-1,3-dihydro-1,3,5,9-tetraaza-cyclopenta[a]naphthalen-2-one] | 7.92 | 8.00 | 8.15
6 | Cc1nn(C)cc1-n1c(=O)n(C)c2cnc3ccc(-c4cncc(OCC5CC5)c4)cc3c21 [Example 61, 8-(5-Cyclopropylmethoxy-pyridin-3-yl)-1-(1,3-dimethyl-1H-pyrazol-4-yl)-3-methyl-1,3-dihydro-imidazo[4,5-c]quinolin-2-one] | 7.89 | 7.19 | 7.77
7 | CCn1cc(-n2c(=O)n(C)c3cnc4ccc(-c5cncc(C(C)(C)O)c5)cc4c32)c(C)n1 [Example 215.4, 1-(1-Ethyl-3-methyl-1H-pyrazol-4-yl)-8-[5-(1-hydroxy-1-methyl-ethyl)-pyridin-3-yl]-3-methyl-1,3-dihydro-imidazo[4,5-c]quinolin-2-one] | 7.70 | 7.89 | 8.00
8 | CCOCc1cc(-c2ccc3ncc4c(c3c2)n(-c2cn(C)nc2C)c(=O)n4C)cnc1N [Example 166.1, 8-(6-Amino-5-ethoxymethyl-pyridin-3-yl)-1-(1,3-dimethyl-1H-pyrazol-4-yl)-3-methyl-1,3-dihydro-imidazo[4,5-c]quinolin-2-one] | 7.66 | 7.48 | 8.52
9 | CCNc1cc(-c2ccc3ncc4c(c3c2)n(-c2cn(C)nc2C)c(=O)n4C)cnc1CC [Example 161, 1-(1,3-Dimethyl-1H-pyrazol-4-yl)-8-(6-ethyl-5-ethylamino-pyridin-3-yl)-3-methyl-1,3-dihydro-imidazo[4,5-c]quinolin-2-one] | > 8.30 | > 8.52 | 8.10
10 | COc1ccc(-c2ccc3ncc4c(c3n2)n(-c2cc(C)nn2C)c(=O)n4C)cc1OC [Example 253, 8-(3,4-Dimethoxy-phenyl)-1-(2,5-dimethyl-2H-pyrazol-3-yl)-3-methyl-1,3-dihydro-1,3,5,9-tetraaza-cyclopenta[a]naphthalen-2-one] | 7.74 | 8.52 | 8.30

Now from value to compound:

Row | pIC50 [1] | pIC50 (mTOR) | pIC50 (PI3K delta) | SMILES
11 | 7.51 | 7.10 | 7.77 | Cc1nn(C(C)C)cc1-n1c(=O)n(C)c2cnc3ccc(-c4cnc(F)c(N)c4)cc3c21 [Example 149.1, 8-(5-Amino-6-fluoro-pyridin-3-yl)-1-(1-isopropyl-3-methyl-1H-pyrazol-4-yl)-3-methyl-1,3-dihydro-imidazo[4,5-c]quinolin-2-one]
12 | 7.60 | 7.51 | 7.92 | CCn1cc(-n2c(=O)n(C)c3cnc4ccc(-c5cncc(OC(C)C)c5)cc4c32)c(C)n1 [Example 58.4, 1-(1-Ethyl-3-methyl-1H-pyrazol-4-yl)-8-(5-isopropoxy-pyridin-3-yl)-3-methyl-1,3-dihydro-imidazo[4,5-c]quinolin-2-one]
13 | 7.14 | 7.23 | 7.70 | CCn1cc(-n2c(=O)n(C)c3cnc4ccc(-c5cnc(OC)nc5)cc4c32)c(C)n1 [Example 17.1, 1-(1-Ethyl-3-methyl-1H-pyrazol-4-yl)-8-(2-methoxy-pyrimidin-5-yl)-3-methyl-1,3-dihydro-imidazo[4,5-c]quinolin-2-one]
14 | 7.49 | 7.37 | 7.49 | Cc1nn(C)cc1-n1c(=O)n(C)c2cnc3ccc(-c4cnc(N(C)C)nc4)cc3c21 [Example 6.2, 8-(2-Dimethylamino-pyrimidin-5-yl)-1-(1,3-dimethyl-1H-pyrazol-4-yl)-3-methyl-1,3-dihydro-imidazo[4,5-c]quinolin-2-one]
15 | 7.17 | 7.35 | 7.57 | Cc1nn(C(C)C)cc1-n1c(=O)n(C)c2cnc3ccc(-c4ccc(CO)nc4)cc3c21 [Example 16.3, 8-(6-hydroxymethyl-pyridin-3-yl)-1-(1-isopropyl-3-methyl-1H-pyrazol-4-yl)-3-methyl-1,3-dihydro-imidazo[4,5-c]quinolin-2-one]
16 | 7.28 | 7.68 | 7.16 | CCN(CC)C(=O)Cn1cc(-n2c(=O)n(C)c3cnc4ccc(-c5ccc(C)nc5)cc4c32)c(C)n1 [Example 139, N,N-Diethyl-2-{3-methyl-4-[3-methyl-8-(6-methyl-pyridin-3-yl)-2-oxo-2,3-dihydro-imidazo[4,5-c]quinolin-1-yl]-pyrazol-1-yl}-acetamide]
17 | 7.72 | 7.17 | 7.42 | COc1ncc(-c2ccc3ncc4c(c3c2)n(-c2cn(C)nc2C)c(=O)n4C)cn1 [Example 17.2, 1-(1,3-Dimethyl-1H-pyrazol-4-yl)-8-(2-methoxy-pyrimidin-5-yl)-3-methyl-1,3-dihydro-imidazo[4,5-c]quinolin-2-one]
18 | 7.60 | 7.89 | 6.59 | CNC(=O)c1ccc(-c2ccc3ncc4c(c3c2)n(-c2cn(C)nc2C)c(=O)n4C)cn1 [Example 15.1, 5-[1-(1,3-Dimethyl-1H-pyrazol-4-yl)-3-methyl-2-oxo-2,3-dihydro-1H-imidazo[4,5-c]quinolin-8-yl]-pyridine-2-carboxylic acid methylamide]
19 | 8.22 | 7.13 | 7.43 | CCOc1ncc(-c2ccc3ncc4c(c3c2)n(-c2cn(C)nc2C)c(=O)n4C)cn1 [Example 52, 1-(1,3-Dimethyl-1H-pyrazol-4-yl)-8-(2-ethoxy-pyrimidin-5-yl)-3-methyl-1,3-dihydro-imidazo[4,5-c]quinolin-2-one]
20 | 7.85 | 7.82 | 8.22 | CCn1cc(-n2c(=O)n(C)c3cnc4ccc(-c5ccc(N(C)C)nc5)cc4c32)c(C)n1 [Example 4.2, 8-(6-Dimethylamino-pyridin-3-yl)-1-(1-ethyl-3-methyl-1H-pyrazol-4-yl)-3-methyl-1,3-dihydro-imidazo[4,5-c]quinolin-2-one]
21 | 7.43 | 7.77 | 7.51 | COc1cncc(-c2ccc3ncc4c(c3c2)n(-c2cn(C)nc2C)c(=O)n4C)c1 [Example 12, 1-(1,3-Dimethyl-1H-pyrazol-4-yl)-8-(5-methoxy-pyridin-3-yl)-3-methyl-1,3-dihydro-imidazo[4,5-c]quinolin-2-one]
22 | 6.87 | 7.14 | 6.95 | Cc1nn(C)cc1-n1c(=O)n(C)c2cnc3ccc(-c4ccc(N5CC[C@@H](O)C5)nc4)cc3c21 [Example 212.1, 1-(1,3-Dimethyl-1H-pyrazol-4-yl)-8-[6-((R)-3-hydroxy-pyrrolidin-1-yl)-pyridin-3-yl]-3-methyl-1,3-dihydro-imidazo[4,5-c]quinolin-2-one]
23 | 6.63 | 6.29 | 6.69 | CCOc1cc(-c2ccc3ncc4c(c3c2)n(-c2cn(C)nc2C)c(=O)n4C)ccn1 [Example 91, 1-(1,3-Dimethyl-1H-pyrazol-4-yl)-8-(2-ethoxy-pyridin-4-yl)-3-methyl-1,3-dihydro-imidazo[4,5-c]quinolin-2-one]
24 | 7.85 | 7.47 | 7.89 | Cc1ccc(-c2ccc3ncc4c(c3c2)n(-c2cn(C)nc2C)c(=O)n4C)cn1 [Example 7.2, 1-(1,3-Dimethyl-1H-pyrazol-4-yl)-3-methyl-8-(6-methyl-pyridin-3-yl)-1,3-dihydro-imidazo[4,5-c]quinolin-2-one]
